Columns and labels:
human NK1 receptor = human NK1 receptor (Homo sapiens, UniProt P25103); test: NK1 receptor binding, [3H]substance P displacement, CHO cell membranes; conditions: first value of the cell NK1/NK3; read-out: pKi NK1 (converted)
[1] = target: T1, Recombinant human NK3 (hNK3) receptor (Homo sapiens, UniProt P29371); test: NK3 receptor binding, [3H]SR142801 displacement, membrane preparations; conditions: second value of the cell NK1/NK3; read-out: pKi NK3 (converted)
T1 construct: expressed in transfected cells
T1 sequence (P29371 1-465): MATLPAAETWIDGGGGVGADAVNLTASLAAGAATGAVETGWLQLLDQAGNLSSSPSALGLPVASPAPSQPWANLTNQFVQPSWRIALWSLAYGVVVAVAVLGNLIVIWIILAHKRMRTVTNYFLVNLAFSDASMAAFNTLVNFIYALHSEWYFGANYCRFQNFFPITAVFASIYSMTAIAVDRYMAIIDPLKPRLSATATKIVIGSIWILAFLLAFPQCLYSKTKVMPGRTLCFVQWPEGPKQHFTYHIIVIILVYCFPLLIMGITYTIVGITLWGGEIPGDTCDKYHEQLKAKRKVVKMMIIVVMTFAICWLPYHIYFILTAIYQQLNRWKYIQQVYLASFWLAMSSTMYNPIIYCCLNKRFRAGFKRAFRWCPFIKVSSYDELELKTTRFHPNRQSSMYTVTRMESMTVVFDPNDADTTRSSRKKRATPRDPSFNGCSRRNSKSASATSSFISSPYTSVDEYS
Procedure, shortened: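 Buffer: Tris-HCl 50 mM pH 7.4, BSA 0.1%, MnCl2 4 mM, phosphoramidon 1 μM. ~2.5 μg membrane/well, 90 min RT. NSB with SB222200 (10 μM). Vacuum filtration over 0.3% PEI-treated GF/C, cold Tris/BSA washes, scintillation count; duplicates, ≥2 experiments.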

Chain of human NK1 receptor (P25103 whole entry): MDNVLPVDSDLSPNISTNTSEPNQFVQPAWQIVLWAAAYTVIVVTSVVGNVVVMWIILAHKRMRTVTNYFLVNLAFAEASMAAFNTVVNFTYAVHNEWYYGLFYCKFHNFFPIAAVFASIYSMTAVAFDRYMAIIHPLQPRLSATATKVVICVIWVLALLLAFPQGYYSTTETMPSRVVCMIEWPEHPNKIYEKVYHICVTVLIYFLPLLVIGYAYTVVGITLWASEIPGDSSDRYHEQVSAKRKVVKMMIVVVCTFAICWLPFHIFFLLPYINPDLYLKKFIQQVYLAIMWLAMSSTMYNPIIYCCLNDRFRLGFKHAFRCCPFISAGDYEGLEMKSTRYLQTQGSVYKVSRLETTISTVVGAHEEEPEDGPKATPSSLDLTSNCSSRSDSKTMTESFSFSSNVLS

SMILES	Ki (human NK1 receptor) [nM]	Ki [1] [nM]
Cc1c(F)cccc1-c1cc(N2C[C@@H](O)C[C@H]2CO)ncc1N(C)C(=O)C(C)(C)c1cc(C(F)(F)F)cc(C(F)(F)F)c1 [Example 249, (2S,4S)-2-(3,5-Bis-trifluoromethyl-phenyl)-N-[4-(3-fluoro-2-methyl-phenyl)-6-(4-hydroxy-2-hydroxymethyl-pyrrolidin-1-yl)-pyridin-3-yl]-N-methyl-isobutyramide]	2	1.02
Cc1ccc(F)cc1-c1cc(N2C[C@@H](O)C[C@H]2CO)ncc1N(C)C(=O)C(C)(C)c1cc(C(F)(F)F)cc(C(F)(F)F)c1 [Example 250, (2S,4S)-2-(3,5-Bis-trifluoromethyl-phenyl)-N-[4-(5-fluoro-2-methyl-phenyl)-6-(4-hydroxy-2-hydroxymethyl-pyrrolidin-1-yl)-pyridin-3-yl]-N-methyl-isobutyramide]	1.95	2
CN(C(=O)C(C)(C)c1cc(C(F)(F)F)cc(C(F)(F)F)c1)c1cnc(N2C[C@@H](O)C[C@H]2CO)cc1-c1cccc(F)c1 [Example 251, (2S,4S)-2-(3,5-Bis-trifluoromethyl-phenyl)-N-[4-(3-fluoro-phenyl)-6-(4-hydroxy-2-hydroxymethyl-pyrrolidin-1-yl)-pyridin-3-yl]-N-methyl-isobutyramide]	1.32	8.91
CN(C(=O)C(C)(C)c1cc(C(F)(F)F)cc(C(F)(F)F)c1)c1cnc(N2C[C@@H](O)C[C@H]2CO)cc1-c1ccc(Cl)c(Cl)c1 [Example 252, (2S,4S)-2-(3,5-Bis-trifluoromethyl-phenyl)-N-[4-(3,4-dichloro-phenyl)-6-(4-hydroxy-2-hydroxymethyl-pyrrolidin-1-yl)-pyridin-3-yl]-N-methyl-isobutyramide]	1.66	6.17
CN(C(=O)C(C)(C)c1cc(C(F)(F)F)cc(C(F)(F)F)c1)c1cnc(N2C[C@@H](O)C[C@H]2CO)cc1-c1cccc(Cl)c1Cl [Example 253, (2S,4S)-2-(3,5-Bis-trifluoromethyl-phenyl)-N-[4-(2,3-dichloro-phenyl)-6-(4-hydroxy-2-hydroxymethyl-pyrrolidin-1-yl)-pyridin-3-yl]-N-methyl-isobutyramide]	2.88	3.16
CN(C(=O)C(C)(C)c1cc(C(F)(F)F)cc(C(F)(F)F)c1)c1cnc(N2C[C@@H](O)C[C@H]2CO)cc1-c1cccnc1Cl [Example 254, (2S,4S)-2-(3,5-Bis-trifluoromethyl-phenyl)-N-[2-chloro-6′-(4-hydroxy-2-hydroxymethyl-pyrrolidin-1-yl)-[3,4′]bipyridinyl-3′-yl]-N-methyl-isobutyramide]	0.977	3.09
Cc1ncccc1-c1cc(N2C[C@@H](O)C[C@H]2CO)ncc1N(C)C(=O)C(C)(C)c1cc(C(F)(F)F)cc(C(F)(F)F)c1 [Example 255, (2S,4S)-2-(3,5-Bis-trifluoromethyl-phenyl)-N-[6′-(4-hydroxy-2-hydroxymethyl-pyrrolidin-1-yl)-2-methyl-[3,4′]bipyridinyl-3′-yl]-N-methyl-isobutyramide]	0.955	10.7
CN(C(=O)C(C)(C)c1cc(C(F)(F)F)cc(C(F)(F)F)c1)c1cnc(N2C[C@@H](O)C[C@H]2CO)cc1-c1ncccc1Cl [Example 256, (2S,4S)-2-(3,5-Bis-trifluoromethyl-phenyl)-N-[3-chloro-6′-(4-hydroxy-2-hydroxymethyl-pyrrolidin-1-yl)-[2,4′]bipyridinyl-3′-yl]-N-methyl-isobutyramide]	2.4	20
Cc1cc(F)ccc1-c1cc(N2C[C@H](O)C[C@@H]2CO)ncc1N(C)C(=O)C(C)(C)c1cc(C(F)(F)F)cc(C(F)(F)F)c1 [Example 258, (2R,4R)-2-(3,5-Bis-trifluoromethyl-phenyl)-N-[4-(4-fluoro-2-methyl-phenyl)-6-(4-hydroxy-2-hydroxymethyl-pyrrolidin-1-yl)-pyridin-3-yl]-N-methyl-isobutyramide]	2	10

Reference: US8404708B2, “Dual NK1/NK3 receptor antagonists” (Hoffmann-La Roche Inc., priority 2004, dated 2013)
